From patent US20250353833A1, “DPP9 BINDING COMPOUNDS” (UNIVERSITEIT ANTWERPEN, priority 2022, published 2025)
Like-named read-outs stand apart in the source and are kept apart here.

How the values were obtained:
Assay type in all cases: biochemical
[1] = molecular target: DPP4 (Homo sapiens (Human), UniProt P27487); assay: DPP4 enzyme inhibition, IC50 measurement (Ala-Pro-pNA release); conditions: for IC50: mean ± SD (n = 3)
Description: DPP4 was purified from human seminal plasma as described previously.^[3]
(§1) IC50 measurements. […] The Magellan software was used to process the data, which was then fitted using a non-linear fit model in GraFit 7. […] As a blank, the assay buffer was used instead of the enzyme. Screening measurements were carried out in duplo and IC50 values were determined in triplo with at least eight different inhibitor concentrations as described by Van Goethem et al.

[2] = molecular target: DPP8 (Homo sapiens (Human), UniProt Q6V1X1); assay: DPP8 enzyme inhibition, IC50 measurement (Ala-Pro-pNA release); conditions: mean ± SD (n = 3), read-out: IC50 DPP8
Method in brief: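 Inhibitory potency against human DPP8 was expressed as IC50, measured in triplicate over at least eight inhibitor concentrations. Blank wells held assay buffer in place of enzyme. Raw data were processed with the Magellan software, and IC50 values were obtained by non-linear curve fitting in GraFit 7.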

[3] = molecular target: DPP9 (Homo sapiens (Human), UniProt Q86TI2); assay: DPP9 enzyme inhibition, IC50 measurement (Ala-Pro-pNA release); conditions: for IC50: mean ± SD (n = 3), read-out: IC50 DPP9; for SI DPP9/4: selectivity index DPP9/4; for SI DPP9/8: selectivity index, DPP8 IC50 over DPP9 IC50
Method in brief: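 DPP9 inhibitory potency was determined as IC50 in triplicate, using at least eight inhibitor concentrations. Blanks contained assay buffer in place of enzyme. Data were processed with Magellan software and fitted to a non-linear model in GraFit 7.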

[4] = molecular target: DPP2 (Homo sapiens (Human), UniProt Q9UHL4); assay: DPP2 enzyme inhibition, IC50 measurement (Lys-Ala-pNA release); conditions: mean ± SD (n = 3)
Description: as §1

[5] = molecular target: FAP (Homo sapiens (Human), UniProt Q12884); assay: FAP enzyme inhibition, IC50 measurement (Z-Gly-Pro-AMC release); conditions: mean ± SD (n = 3)
[6] = molecular target: PREP (Homo sapiens (Human), UniProt P48147); assay: PREP enzyme inhibition, IC50 measurement (N-succinyl-Gly-Pro-AMC release); conditions: mean ± SD (n = 3)
Description: as §1

Chain of DPP9 (Q86TI2 whole entry): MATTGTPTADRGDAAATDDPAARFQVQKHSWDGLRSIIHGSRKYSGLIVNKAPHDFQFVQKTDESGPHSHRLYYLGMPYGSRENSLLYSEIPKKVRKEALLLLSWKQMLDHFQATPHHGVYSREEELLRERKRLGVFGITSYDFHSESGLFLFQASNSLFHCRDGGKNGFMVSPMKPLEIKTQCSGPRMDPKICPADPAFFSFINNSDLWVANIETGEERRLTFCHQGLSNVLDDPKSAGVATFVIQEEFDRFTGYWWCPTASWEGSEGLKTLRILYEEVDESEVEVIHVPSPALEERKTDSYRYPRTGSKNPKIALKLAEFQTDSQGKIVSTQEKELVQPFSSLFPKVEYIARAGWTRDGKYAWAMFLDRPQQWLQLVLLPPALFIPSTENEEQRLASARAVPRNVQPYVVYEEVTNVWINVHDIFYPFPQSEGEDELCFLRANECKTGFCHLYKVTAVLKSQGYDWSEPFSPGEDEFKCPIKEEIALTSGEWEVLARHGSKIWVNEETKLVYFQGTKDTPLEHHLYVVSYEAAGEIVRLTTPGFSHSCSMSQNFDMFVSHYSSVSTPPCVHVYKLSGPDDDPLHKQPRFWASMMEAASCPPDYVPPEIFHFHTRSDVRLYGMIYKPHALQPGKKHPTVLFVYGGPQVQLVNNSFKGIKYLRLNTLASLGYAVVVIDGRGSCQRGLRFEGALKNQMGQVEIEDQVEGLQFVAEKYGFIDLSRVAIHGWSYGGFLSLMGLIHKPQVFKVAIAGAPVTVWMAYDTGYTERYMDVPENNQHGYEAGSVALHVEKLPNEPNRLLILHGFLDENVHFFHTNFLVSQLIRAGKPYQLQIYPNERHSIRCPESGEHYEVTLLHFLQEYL
Chain of DPP8 (Q6V1X1 whole entry): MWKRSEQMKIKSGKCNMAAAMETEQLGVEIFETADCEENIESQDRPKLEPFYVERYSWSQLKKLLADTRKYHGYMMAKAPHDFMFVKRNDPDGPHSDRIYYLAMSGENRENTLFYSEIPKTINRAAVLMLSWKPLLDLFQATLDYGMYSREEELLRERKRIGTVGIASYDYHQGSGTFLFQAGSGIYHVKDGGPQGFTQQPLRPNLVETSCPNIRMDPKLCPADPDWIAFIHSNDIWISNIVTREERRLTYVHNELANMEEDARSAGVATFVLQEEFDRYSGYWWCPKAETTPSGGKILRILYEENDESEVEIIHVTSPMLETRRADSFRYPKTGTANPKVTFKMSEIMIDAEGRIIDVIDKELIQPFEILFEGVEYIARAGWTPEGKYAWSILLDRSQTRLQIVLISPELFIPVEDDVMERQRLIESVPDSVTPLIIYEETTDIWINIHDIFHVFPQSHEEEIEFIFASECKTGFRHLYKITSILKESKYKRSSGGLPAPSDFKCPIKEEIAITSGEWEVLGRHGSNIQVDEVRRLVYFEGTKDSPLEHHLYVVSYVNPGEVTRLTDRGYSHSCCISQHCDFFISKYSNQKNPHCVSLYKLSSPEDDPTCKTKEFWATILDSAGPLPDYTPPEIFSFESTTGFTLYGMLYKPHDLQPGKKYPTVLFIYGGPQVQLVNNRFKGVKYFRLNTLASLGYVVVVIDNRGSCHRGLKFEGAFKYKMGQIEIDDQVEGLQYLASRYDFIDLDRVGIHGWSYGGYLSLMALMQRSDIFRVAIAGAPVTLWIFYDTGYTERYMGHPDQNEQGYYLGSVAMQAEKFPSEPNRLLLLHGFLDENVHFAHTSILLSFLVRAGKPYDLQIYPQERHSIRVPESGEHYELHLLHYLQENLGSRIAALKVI
Chain of DPP4 (P27487 whole entry): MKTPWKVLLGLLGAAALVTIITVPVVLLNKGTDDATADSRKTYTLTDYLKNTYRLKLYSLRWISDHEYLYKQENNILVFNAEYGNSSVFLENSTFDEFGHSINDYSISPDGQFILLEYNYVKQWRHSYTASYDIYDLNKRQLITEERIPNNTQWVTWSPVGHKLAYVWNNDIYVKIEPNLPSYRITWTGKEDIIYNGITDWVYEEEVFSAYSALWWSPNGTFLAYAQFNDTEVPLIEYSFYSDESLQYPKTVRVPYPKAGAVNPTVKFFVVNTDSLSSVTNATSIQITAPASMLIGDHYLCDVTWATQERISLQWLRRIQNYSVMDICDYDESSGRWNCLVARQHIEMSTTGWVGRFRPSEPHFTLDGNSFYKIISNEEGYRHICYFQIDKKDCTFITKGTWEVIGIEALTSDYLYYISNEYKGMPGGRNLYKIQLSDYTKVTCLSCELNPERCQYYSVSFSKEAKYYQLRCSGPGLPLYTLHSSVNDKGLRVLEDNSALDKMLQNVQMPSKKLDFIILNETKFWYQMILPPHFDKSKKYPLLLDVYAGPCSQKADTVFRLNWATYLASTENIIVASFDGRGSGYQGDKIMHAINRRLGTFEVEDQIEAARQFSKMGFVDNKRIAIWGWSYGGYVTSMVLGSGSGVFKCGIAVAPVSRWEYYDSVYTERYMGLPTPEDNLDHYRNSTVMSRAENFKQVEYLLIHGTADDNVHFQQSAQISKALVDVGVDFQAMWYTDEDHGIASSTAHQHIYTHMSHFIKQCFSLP
Chain of PREP (P48147 whole entry): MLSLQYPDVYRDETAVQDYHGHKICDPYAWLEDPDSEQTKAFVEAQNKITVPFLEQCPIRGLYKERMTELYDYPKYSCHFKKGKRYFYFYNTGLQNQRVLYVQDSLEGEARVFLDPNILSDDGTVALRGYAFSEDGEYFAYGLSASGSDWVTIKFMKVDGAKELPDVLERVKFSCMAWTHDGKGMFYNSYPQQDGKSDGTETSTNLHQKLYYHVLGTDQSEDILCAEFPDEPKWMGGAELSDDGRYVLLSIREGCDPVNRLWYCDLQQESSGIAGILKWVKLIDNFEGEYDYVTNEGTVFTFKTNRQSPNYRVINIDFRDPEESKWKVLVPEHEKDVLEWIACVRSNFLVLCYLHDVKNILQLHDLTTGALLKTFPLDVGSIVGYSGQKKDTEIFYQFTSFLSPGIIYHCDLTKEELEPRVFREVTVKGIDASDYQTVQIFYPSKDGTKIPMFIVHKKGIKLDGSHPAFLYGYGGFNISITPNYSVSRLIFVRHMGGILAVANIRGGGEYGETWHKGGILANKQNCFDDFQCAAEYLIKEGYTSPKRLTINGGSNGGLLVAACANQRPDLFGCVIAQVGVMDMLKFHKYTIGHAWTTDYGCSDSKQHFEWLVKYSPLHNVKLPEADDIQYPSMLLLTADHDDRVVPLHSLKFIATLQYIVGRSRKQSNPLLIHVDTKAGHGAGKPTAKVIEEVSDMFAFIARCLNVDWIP
Chain of FAP (Q12884 27-760): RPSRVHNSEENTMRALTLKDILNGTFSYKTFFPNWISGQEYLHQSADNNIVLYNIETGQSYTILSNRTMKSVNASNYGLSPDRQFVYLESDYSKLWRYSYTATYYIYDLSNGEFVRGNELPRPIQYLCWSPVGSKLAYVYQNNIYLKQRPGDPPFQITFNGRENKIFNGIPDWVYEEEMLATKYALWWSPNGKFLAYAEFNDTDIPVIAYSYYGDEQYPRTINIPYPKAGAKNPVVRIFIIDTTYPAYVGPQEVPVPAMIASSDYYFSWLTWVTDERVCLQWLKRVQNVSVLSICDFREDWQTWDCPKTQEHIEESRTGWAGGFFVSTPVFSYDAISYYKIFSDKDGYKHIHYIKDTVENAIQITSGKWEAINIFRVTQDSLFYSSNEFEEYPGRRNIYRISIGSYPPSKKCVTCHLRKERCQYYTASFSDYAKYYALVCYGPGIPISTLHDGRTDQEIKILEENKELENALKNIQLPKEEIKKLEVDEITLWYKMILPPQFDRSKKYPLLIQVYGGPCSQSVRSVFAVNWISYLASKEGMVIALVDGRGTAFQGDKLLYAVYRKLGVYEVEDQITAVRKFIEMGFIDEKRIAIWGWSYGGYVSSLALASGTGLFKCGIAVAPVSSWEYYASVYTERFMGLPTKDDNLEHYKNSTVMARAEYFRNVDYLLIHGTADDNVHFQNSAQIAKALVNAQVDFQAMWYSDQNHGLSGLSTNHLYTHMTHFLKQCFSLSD

Structure (SMILES) | IC50 ([1]; Table 1) | IC50 ([2]; Table 1) | IC50 ([3]; Table 1) | SI DPP9/4 ([3]; Table 1) | SI DPP9/8 ([3]; Table 1) | IC50 ([4]; Table 1) | IC50 ([5]; Table 1) | IC50 ([6]; Table 1) | IC50 ([1]; Table 2) | IC50 ([2]; Table 2) | IC50 ([3]; Table 2) | SI DPP9/4 ([3]; Table 2) | SI DPP9/8 ([3]; Table 2) | IC50 ([4]; Table 2) | IC50 ([5]; Table 2) | IC50 ([6]; Table 2) | DPP4 potency decrease ([1]; 5p compared with vildagliptin/4) | DPP9 inhibitory potency (in words) [3] | DPP9/8 selectivity index [3]
C=C1C[C@@H](C#N)N(C(=O)CNC23CC4CC(C2)CC(OCc2ccc(F)cc2F)(C4)C3)C1 [Compound 5j, (2S)-1-((3-((2,4-difluorobenzyl)oxy)adamantan-1-yl)glycyl)-4-methylenepyrrolidine-2-carbonitrile] | 410 ± 100 nM | 370 ± 70 nM | 130 ± 20 nM | 3.1 | 2.8 | 1100 ± 80 nM | > 10000 nM | > 10000 nM | – | – | – | – | – | – | – | – | – | – | –
CCCCOC12CC3CC(CC(NCC(=O)N4Cc5ccccc5C4)(C3)C1)C2 [Compound 5s, 2-((-3-butoxyadamantan-1-yl)amino)-1-(isoindolin-2-yl)ethan-1-one] | – | – | – | – | – | – | – | – | > 10000 nM | 3100 ± 100 nM | 490 ± 40 nM | >20.4 | 6.4 | > 5000 nM | > 10000 nM | > 10000 nM | – | – | –
O=C(CNC12CC3CC(C1)CC(OCc1ccccc1)(C3)C2)N1Cc2ccccc2C1 [Compound 5q, 2-((3-(benzyloxy)adamantan-1-yl)amino)-1-(isoindolin-2-yl)ethan-1-one] | – | – | – | – | – | – | – | – | > 10000 nM | 6900 ± 2000 nM | 1200 ± 200 nM | >8.5 | 5.8 | > 5000 nM | > 10000 nM | > 10000 nM | – | – | –
O=C(CNC12CC3CC(CC(O)(C3)C1)C2)N1Cc2ccccc2C1 [Compound 5p, 2-((-3-hydroxyadamantan-1-yl)amino)-1-(isoindolin-2-yl)ethan-1-one] | – | – | – | – | – | – | – | – | > 10000 nM | 17700 ± 800 nM | 4100 ± 700 nM | >2.4 | 4.3 | > 5000 nM | > 10000 nM | > 10000 nM | at least 100 fold | – | –
CCCCOC12CC3CC(CC(NCC(=O)N4CCC[C@H]4C#N)(C3)C1)C2 [Compound 5c, (2S)-1-((-3-butoxyadamantan-1-yl)glycyl)pyrrolidine-2-carbonitrile] | 12 ± 2 nM | 1250 ± 100 nM | 150 ± 10 nM | 0.07 | 8.5 | > 5000 nM | > 10000 nM | > 10000 nM | – | – | – | – | – | – | – | – | – | – | –
N#C[C@@H]1C[C@H](N=[N+]=[N-])CN1C(=O)CNC12CC3CC(C1)CC(OCc1ccccc1)(C3)C2 [Compound 5e, (2S,4S)-4-azido-1-((3-(benzyloxy)adamantan-1-yl)glycyl)pyrrolidine-2-carbonitrile] | 17 ± 3 nM | 60 ± 4 nM | 10 ± 1 nM | 1.7 | 6.0 | > 5000 nM | > 10000 nM | > 10000 nM | – | – | – | – | – | – | – | – | – | – | –
N#C[C@@H]1[C@@H]2C[C@@H]2CN1C(=O)CNC12CC3CC(C1)CC(OCc1ccccc1)(C3)C2 [Compound 5m, (1R,2S,5S)-3-((-3-(benzyloxy)adamantan-1-yl)glycyl)-3-azabicyclo[3.1.0]hexane-2-carbonitrile] | 100 ± 40 nM | 5900 ± 400 nM | 670 ± 200 nM | 0.15 | 8.7 | > 5000 nM | > 10000 nM | > 10000 nM | – | – | – | – | – | – | – | – | – | – | –
N#C[C@@H]1C[C@H](N=[N+]=[N-])CN1C(=O)CNC12CC3CC(CC(O)(C3)C1)C2 [Compound 5d, (2S,4S)-4-azido-1-((-3-hydroxyadamantan-1-yl)glycyl)pyrrolidine-2-carbonitrile] | 32 ± 3 nM | 150 ± 20 nM | 16 ± 1 nM | 2 | 9.4 | > 5000 nM | > 10000 nM | > 10000 nM | – | – | – | – | – | – | – | – | – | – | –
C=C1C[C@@H](C#N)N(C(=O)CNC23CC4CC(C2)CC(OCc2ccccc2)(C4)C3)C1 [Compound 5i, (S)-1-((3-(benzyloxy)adamantan-1-yl)glycyl)-4-methylenepyrrolidine-2-carbonitrile] | 280 ± 10 nM | 340 ± 6 nM | 120 ± 30 nM | 2.3 | 2.9 | 1270 ± 200 nM | > 10000 nM | 8920 ± 1000 nM | – | – | – | – | – | – | – | – | – | – | –
N#C[C@@H]1C[C@H](N=[N+]=[N-])CN1C(=O)CNC12CC3CC(C1)CC(OCc1ccc(F)cc1F)(C3)C2 [Compound 5f, (2S,4S)-4-azido-1-((3-((2,4-difluorobenzyl)oxy)adamantan-1-yl)glycyl)pyrrolidine-2-carbonitrile] | 24 ± 3 nM | 41 ± 7 nM | 6 ± 1 nM | 3.3 | 6.8 | > 5000 nM | > 10000 nM | > 10000 nM | – | – | – | – | – | – | – | – | – | most potent DPP9 inhibitor | –
C=C1C[C@@H](C#N)N(C(=O)CNC23CC4CC(CC(O)(C4)C2)C3)C1 [Compound 5h, (2S)-1-((3-hydroxyadamantan-1-yl)glycyl)-4-methylenepyrrolidine-2-carbonitrile] | 230 ± 70 nM | 1000 ± 200 nM | 260 ± 30 nM | 0.9 | 3.9 | > 5000 nM | > 10000 nM | > 10000 nM | – | – | – | – | – | – | – | – | – | – | –
CC(C)OC12CC3CC(CC(NCC(=O)N4Cc5ccccc5C4)(C3)C1)C2 [Compound 5t, 1-(isoindolin-2-yl)-2-((-3-isopropoxyadamantan-1-yl)amino)ethan-1-one] | – | – | – | – | – | – | – | – | > 10000 nM | 4000 ± 1000 nM | 610 ± 70 nM | >16.4 | 6.5 | > 5000 nM | > 10000 nM | > 10000 nM | – | – | –
O=C(CNC12CC3CC(C1)CC(OCc1ccc(F)cc1F)(C3)C2)N1Cc2ccccc2C1 [Compound 5r, 2-((-3-((2,4-difluorobenzyl)oxy)adamantan-1-yl)amino)-1-(isoindolin-2-yl)ethan-1-one] | – | – | – | – | – | – | – | – | > 10000 nM | 1540 ± 90 nM | 380 ± 70 nM | >26.4 | 4.1 | > 5000 nM | > 10000 nM | > 10000 nM | – | – | 4.1
